The test system of this assay is MCH receptors. Description: MCH receptor activity class (method not given).
The mark [1] stands for this setting: MCH receptor, class by percent of control at 10^-7 M or IC50.
The mark [2] stands for this setting: class by percent of control at 10^-7 M or IC50.
Setting [3] is: MCH receptor activity class 1-3 (percent of control at 10^-7 M or IC50).
Setting [4] is: activity class per percent of control at 10^-7 M or IC50.
Setting [5] is: class by percent of control at 10^−7 M or IC50.

Like-named read-outs stand apart in the source and are kept apart here.

With `CN(C)c1cc(N[C@H]2CC[C@@H](NC(=O)Cc3ccccc3)CC2)nc2ccccc12` [compound 45, N-(cis-4-{[4-(dimethylamino)quinolin-2-yl]amino}cyclohexyl)-2-phenlacetamide], the class under setting [1] was 3 (Class 3 The value of percent of control at 10^−7 M was more than 60% or the value of IC50 was more than 200 nM.).

For the compound `Cc1ccc(-c2ccc(C(=O)N[C@H]3CC[C@@H](Nc4nccc(N(C)C)n4)CC3)o2)c([N+](=O)[O-])c1` [compound 826, N-(cis-4-{[4-(dimethylamino)pyrimidin-2-yl]amino}cyclohexyl)-5-(4-methyl-2-nitrophenyl)-2-furamide], the class under setting [2] was 2 (Class 2: The value of percent of control at 10^−7 M was from 40% to 60% or the value of IC′50 was from 50 nM to 200 nM.). For `Cc1cc(F)ccc1NC(=S)N[C@H]1CC[C@@H](Nc2nccc(N(C)C)n2)CC1` [compound 2340], under setting [3], the class is 3 (Class 3 The value of percent of control at 10^−7 M was more than 60% or the value of IC50 was more than 200 nM.). Take `CN(C)c1cc(N[C@H]2CC[C@@H](NC(=O)c3cccnc3Oc3ccccc3)CC2)nc2ccccc12` [compound 135, N-(cis-4-{[4-(dimethylamino)quinolin-2-yl]amino}cyclohexyl)-2-phenoxynicotinamide]: under setting [1], the class is reported as 1 (Class 1: The value of percent of control at 10^−7 M was less than 40% or the value of IC50 was less than 50 nM.). For the compound `CN(C)c1ccnc(N[C@H]2CC[C@@H](NC(=O)CC3CCCC3)CC2)n1` [compound 293], the class under setting [2] is given as 3 (Class 3 The value of percent of control at 10^−7 M was more than 60% or the value of IC50 was more than 200 nM.). As for `COc1cc([N+](=O)[O-])ccc1NC(=S)N[C@H]1CC[C@@H](Nc2nccc(N(C)C)n2)CC1` [compound 2314], the class under setting [3] is 3 (Class 3 The value of percent of control at 10^−7 M was more than 60% or the value of IC50 was more than 200 nM.). Consider `Cc1c(C(=O)N[C@H]2CC[C@@H](Nc3nccc(N(C)C)n3)CC2)cc(-c2ccccc2)n1CCSCc1c(F)cccc1Cl` [compound 891], for which the class under setting [2] is on record as 1 (Class 1: The value of percent of control at 10^−7 M was less than 40% or the value of IC50 was less than 50 nM.).

`CN(C)c1nc(N[C@H]2CC[C@@H](NCCc3c(-c4ccccc4)[nH]c4ccccc34)CC2)nc2c1CCCC2` [compound 1494]: the class under setting [2] is recorded as 3 (Class 3 The value of percent of control at 10^−7 M was more than 60% or the value of IC50 was more than 200 nM.). Take `CN(C)c1ccnc(N[C@H]2CC[C@@H](NC(=O)Nc3ccc(Cl)cc3C(F)(F)F)CC2)n1` [compound 2207]: the class under setting [2] was 3 (Class 3 The value of percent of control at 10^−7 M was more than 60% or the value of IC50 was more than 200 nM.). As for `CN(C)c1nc(N[C@H]2CC[C@@H](NC(=O)c3cccc(C#N)c3)CC2)nc2c1CCCC2` [compound 465], the class (class 1-3 by percent of control at 10^-7 M or IC50) was 1 (Class 1: The value of percent of control at 10^−7 M was less than 40% or the value of IC50 was less than 50 nM.). Take `Cc1cc(N(C)C)nc(N[C@H]2CC[C@@H](C(=O)NCc3ccc(Cl)cc3Cl)CC2)n1` [Example 2572, cis-N-(2,4-dichlorobenzyl)-4-{[4-(dimethylamino)-6-methylpyrimidin-2-yl]amino}cyclohexanecarboxamide]: the class is on record as 1.

Consider `C/C(=C\c1ccccc1)C(=O)N[C@H]1CC[C@@H](Nc2nccc(N(C)C)n2)CC1` [compound 305], for which the class under setting [2] is 3 (Class 3 The value of percent of control at 10^−7 M was more than 60% or the value of IC50 was more than 200 nM.). As to `CN(C)c1nc(N[C@H]2CC[C@@H](NCc3cncc(-c4ccc(F)cc4)c3)CC2)nc2c1CCCC2` [compound 1356], under setting [2], the class is reported as 3 (Class 3 The value of percent of control at 10^−7 M was more than 60% or the value of IC50 was more than 200 nM.).

For the compound `CN(C)c1nc(N[C@H]2CC[C@@H](NC(=O)C(CC(=O)c3ccc(Br)cc3)c3c[nH]c4ccccc34)CC2)nc2c1CCCC2` (relative stereo) [compound 992], the class under setting [4] is 3 (Class 3 The value of percent of control at 10^−7 M was more than 60% or the value of IC50 was more than 200 nM.). Regarding `Cc1onc(-c2ccccc2Cl)c1C(=O)N[C@H]1CC[C@@H](Nc2cc(N(C)C)c3ccccc3n2)CC1` [compound 98], the class under setting [1] is recorded as 1 (Class 1: The value of percent of control at 10^−7 M was less than 40% or the value of IC50 was less than 50 nM.).

Consider `CN(C)c1cc(N[C@H]2CC[C@@H](NC(=O)NCc3ccccc3Cl)CC2)nc2ccccc12` [compound 2105], for which the class under setting [2] is reported as 2 (Class 2: The value of percent of control at 10^−7 M was from 40% to 60% or the value of IC′50 was from 50 nM to 200 nM.). In the case of `CN(C)c1cc(N[C@H]2CC[C@@H](NCCN(CCC#N)c3ccccc3)CC2)nc2ccccc12` [compound 1455], the class under setting [2] is recorded as 2 (Class 2: The value of percent of control at 10^−7 M was from 40% to 60% or the value of IC′50 was from 50 nM to 200 nM.). For `Cc1ccccc1NC(=O)N[C@H]1CC[C@@H](Nc2cc(N(C)C)c3ccccc3n2)CC1` [compound 2098], the class under setting [2] is 3 (Class 3 The value of percent of control at 10^−7 M was more than 60% or the value of IC50 was more than 200 nM.). Still for that read-out and setting: the figure for `CN(C)c1nc(N[C@H]2CC[C@@H](NC(=O)Nc3c(Cl)cccc3Cl)CC2)nc2c1CCCC2` [compound 1800] is 3 (Class 3 The value of percent of control at 10^−7 M was more than 60% or the value of IC50 was more than 200 nM.).

Turning to `COc1cc(CN[C@H]2CC[C@@H](Nc3cc(N(C)C)c4ccccc4n3)CC2)cc(I)c1O` [compound 1102], the class under setting [4] is on record as 3 (Class 3 The value of percent of control at 10^−7 M was more than 60% or the value of IC50 was more than 200 nM.). For `CN(C)c1nc(N[C@H]2CC[C@@H](CNC(=O)Nc3c(Br)cc(F)cc3Br)CC2)nc2c1CCCC2` [compound 2490, N-(2,6-dibromo-4-fluorophenyl)-N′-[(cis-4-{[4-(dimethylamino)-5,6,7,8-tetrahydroquinazolin-2-yl]amino}cyclohexyl)methyl]urea], the class under setting [2] is given as 1 (Class 1: The value of percent of control at 10^−7 M was less than 40% or the value of IC50 was less than 50 nM.).

With `Cc1cc(C)c(NC(=O)Nc2ccc(OC(F)(F)F)cc2)c(C(=O)N[C@H]2CC[C@@H](Nc3nc4c(c(N(C)C)n3)CCCC4)CC2)c1` [compound 993], the class under setting [4] was 1 (Class 1: The value of percent of control at 10^−7 M was less than 40% or the value of IC50 was less than 50 nM.). For `Cc1cc(N(C)C)nc(NC[C@H]2CC[C@@H](NC(=O)c3ccc(Br)cc3)CC2)n1` [compound 2744, 4-bromo-N-[cis-4-({[4-(dimethylamino)-6-methylpyrimidin-2-yl]amino}methyl)cyclohexyl]benzamide], under setting [5], the class was 2 (Class 2: The value of percent of control at 10^−7 M was from 40% to 60% or the value of IC′50 was from 50 nM to 200 nM.).

As for `CN(C)c1cc(N[C@H]2CC[C@@H](NC(=O)COc3ccccc3)CC2)nc2ccccc12` [compound 112, N-(cis-4-{[4-(dimethylamino)quinolin-2-yl]amino}cyclohexyl)-2-phenoxyacetamide], the class under setting [1] is 1 (Class 1: The value of percent of control at 10^−7 M was less than 40% or the value of IC50 was less than 50 nM.).

With `CN(C)c1cc(N[C@H]2CC[C@@H](NC(=O)Cc3ccc(Oc4ccccc4)cc3)CC2)nc2ccccc12` [compound 728], under setting [2], the class was 3 (Class 3 The value of percent of control at 10^−7 M was more than 60% or the value of IC50 was more than 200 nM.). On to `Cc1ccc(C(=O)N[C@H]2CC[C@@H](Nc3nc(C)c(C)c(N(C)C)n3)CC2)cc1F` [compound 2853, N-(cis-4-{[4-(dimethylamino)-5,6-dimethylpyrimidin-2-yl]amino}cyclohexyl)-3-fluoro-4-methylbenzamide], for which the class under setting [5] was 1 (Class 1: The value of percent of control at 10^−7 M was less than 40% or the value of IC50 was less than 50 nM.). Consider `CN(C)c1cc(N[C@H]2CC[C@@H](CNC(=O)OCc3ccccc3Cl)CC2)nc2ccccc12` [compound 1576], for which the class (activity class 1-3: percent of control at 10^-7 M or IC50) is 3 (Class 3 The value of percent of control at 10^−7 M was more than 60% or the value of IC50 was more than 200 nM.). Take `CN(C)c1nc(NC2CCC(NC(=S)NC3CC4CCC3C4)CC2)nc2c1CCCC2` (stereo not drawn) [compound 1790]: the class under setting [2] was 3 (Class 3 The value of percent of control at 10^−7 M was more than 60% or the value of IC50 was more than 200 nM.).

Turning to `Cc1cc(C(=O)NC[C@H]2CC[C@@H](Nc3cc(N(C)C)c4ccccc4n3)CC2)ccc1F` [compound 208, N-[(cis-4-{[4-(dimethylamino)quinolin-2-yl]amino}cyclohexyl)methyl]-4-fluoro-3-methylbenzamide], the class under setting [1] is recorded as 3 (Class 3 The value of percent of control at 10^−7 M was more than 60% or the value of IC50 was more than 200 nM.).

On to `COc1cc(CN[C@H]2CC[C@@H](Nc3nc4c(c(N(C)C)n3)CCCC4)CC2)cc(OC)c1` [compound 1342], for which the class under setting [2] is 2 (Class 2: The value of percent of control at 10^−7 M was from 40% to 60% or the value of IC′50 was from 50 nM to 200 nM.).

As for `COc1cc(NC(=O)N[C@H]2CC[C@@H](Nc3nccc(N(C)C)n3)CC2)cc(OC)c1OC` [compound 2239, N-(cis-4-{[4-(dimethylamino)pyrimidin-2-yl]amino}cyclohexyl)-N′-(3,4,5-trimethoxyphenyl)urea], the class under setting [2] is recorded as 1 (Class 1: The value of percent of control at 10^−7 M was less than 40% or the value of IC50 was less than 50 nM.). For the compound `CCOc1cccc(CN[C@H]2CC[C@@H](Nc3nc4c(c(N(C)C)n3)CCCC4)CC2)c1` [compound 1486], under setting [2], the class was 3 (Class 3 The value of percent of control at 10^−7 M was more than 60% or the value of IC50 was more than 200 nM.). Consider `CN(C)c1cc(N[C@H]2CC[C@@H](CNC(=O)CC3=CCCCC3)CC2)nc2ccccc12` [compound 806], for which the class under setting [2] is recorded as 3 (Class 3 The value of percent of control at 10^−7 M was more than 60% or the value of IC50 was more than 200 nM.).

(Values after patent US20050197350A1, “Novel quinoline, tetrahydroquinazoline, and pyrimidine derivatives and methods of treatment related to the use thereof” (TAISHO PHARMACEUTICAL CO., LTD., priority 2003, published 2005).)
